Read-outs that look alike come from different tables or passages of the source.
Columns and labels:
[1] = target: hSERT (Homo sapiens, UniProt P31645); experiment: SERT radioligand binding assay ([125I]RTI-55, HEK-hSERT membranes); details: HEK-293 hSERT membranes, 260 pM [125I]RTI-55, 1 hour at room temperature
Description: (§1) NK-1 Binding assay. Crude membrane suspensions were prepared for the NK1 and SERT radioligand binding assays from U373 cells or recombinant HEK-293 cells expressing hSERT, respectively. Cells were harvested from T-175 flasks as follows. The medium is removed from the flasks and the cells rinsed with HBSS without Ca and without Mg. The cells are then incubated for 5-10 minutes in 10 mM Tris-Cl, pH 7.5, 5 mM EDTA before the cells are lifted with a combination of pipetting and scraping, as needed. To prepare membranes, the cell suspension is collected into centrifuge bottles and homogenized for 30 seconds with a Polytron homogenizer. The suspension is centrifuged for 30 min@32,000×g, 4° C., then the supernatant is decanted and the pellet resuspended and homogenized in 50 mM Tris-Cl, pH 7.5, 1 mM EDTA for 10 seconds. The suspension is then centrifuged again for 30 min@32,000×g, 4° C. The supernatant is decanted and the pellet resuspended in 50 mM Tris-Cl, pH 7.5, 1 mM EDTA and briefly homogenized. A Bradford assay (Bio-rad) is performed and the membrane preparation diluted to 2 mg/ml with 50 mM Tris-Cl, pH 7.5, 1 mM EDTA. Aliquots are prepared, and then frozen and stored at −80° C.
SERT radioligand binding assay. Compounds are dissolved in 100% DMSO at a concentration 100× the desired highest assay concentration, serially diluted 1:3 in 100% DMSO, and 0.4 ul/well of each solution is dispensed to a Nunc polypropylene, round bottom, 384 well plate. 100% inhibition is defined with 0.4 ul/well of 1 mM fluoxetine (Sigma F-132) dissolved in DMSO. 20 ul/well of a 2× HEK-hSERT membrane preparation (15 ug/ml in 50 mM Tris-Cl, pH 7.5, 120 mM NaCl, 5mM KCl) and 20 ul/well of a 2× radioligand solution (520 pM [^125I]RTI-55 (Perkin-Elmer NEX-272) in 50 mM Tris-Cl, pH 7.5, 120 mM NaCl, 5mM KCl) are added to each well and the reaction incubated for 1 hour at room temperature. The contents of the assay plate are then transferred to a Millipore MultiscreenHTs GF/B filter plate which has been pretreated with 0.5% PEI for at least one hour. The plate is vacuum filtered and washed with 7 washes of 100 ul/well of 50 mM Tris-Cl, pH 7.5, 120 mM NaCl, 5 mM KCl chilled to 4° C. The filtration and washing is completed in less than 90 s. The plates are air-dried overnight, 12 ul/well of MicroScint scintillation fluid added, and the plates counted in a Trilux.
(§2) Data analysis. The raw data are normalized to percent inhibition using control wells defining 0% (DMSO only) and 100% (selective inhibitor) inhibition which are run on each plate. Each plate is run in triplicate, and the concentration response curve thus generated is fit using the four-parameter dose response equation, Y=Bottom+(Top-Bottom)/(1+10^((LogIC50−X)*HillSlope)) in order to determine the IC50 value for each compound. The radioligand concentration chosen for each assay corresponds to the Kd concentration determined through saturation binding analysis for each assay.

[2] = target: T1, NK-1 (Homo sapiens, UniProt P25103); experiment: NK1 radioligand binding assay ([125I]Substance P, U373 membranes); details: U373 cell membranes, 200 pM [125I]Substance P, 1 hour at room temperature
T1 construct: 30 ul/well of a 2×U373 membrane preparation
T1 sequence (P25103 whole entry): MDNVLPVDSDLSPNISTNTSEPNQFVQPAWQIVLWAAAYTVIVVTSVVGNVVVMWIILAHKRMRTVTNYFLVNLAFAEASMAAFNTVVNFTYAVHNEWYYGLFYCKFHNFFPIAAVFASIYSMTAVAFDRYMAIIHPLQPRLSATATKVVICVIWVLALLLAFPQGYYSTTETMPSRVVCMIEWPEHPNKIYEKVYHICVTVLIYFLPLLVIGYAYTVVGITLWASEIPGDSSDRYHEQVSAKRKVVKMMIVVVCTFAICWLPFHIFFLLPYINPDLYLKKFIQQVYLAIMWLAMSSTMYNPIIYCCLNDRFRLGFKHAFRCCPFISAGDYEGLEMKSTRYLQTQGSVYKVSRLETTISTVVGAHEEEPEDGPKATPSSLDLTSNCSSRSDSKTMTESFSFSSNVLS
Description: as §1
NK1 radioligand binding assay. Compounds are dissolved in 100% DMSO at a concentration 100× the desired highest assay concentration, serially diluted 1:3 in 100% DMSO, and 0.6 ul/well of each solution is dispensed to a Nunc polypropylene, round bottom, 384 well plate. 100% inhibition is defined with 0.6 ul/well of 1 mM L-733,060 (Sigma L-137) dissolved in DMSO. 30 ul/well of a 2×U373 membrane preparation (267 ug/ml in 100 mM Tris-Cl, pH 7.5, 6 mM MgCl2, 0.2% (v/v) Sigma mammalian protease inhibitor cocktail (Sigma P-8340), and 4 ug/ml chymostatin, Sigma C-7268) and 30 ul/well of a 2× radioligand solution (400 pM [^125I]Substance P (Perkin ElmerNEX-190) in 1% (w/v) BSA (Sigma A-2153), 0.1 mg/ml bacitracin, Sigma B-0125) are added to the well and the reaction incubated for 1 hour at room temperature. The contents of the assay plate are then transferred to a Millipore MultiscreenHTS GF/B filter plate which has been pretreated with 0.5% PEI for at least one hour. The plate is vacuum filtered and washed with 7 washes of 100 ul/well of 20 mM Tris-Cl, pH 7.5, 0.5% (w/v) BSA chilled to 4° C. The filtration and washing is completed in less than 90 s. The plates are air-dried overnight, 12 ul/well of MicroScint scintillation fluid added, and the plates counted in a Trilux.
as §2

Chain of hSERT (P31645 whole entry): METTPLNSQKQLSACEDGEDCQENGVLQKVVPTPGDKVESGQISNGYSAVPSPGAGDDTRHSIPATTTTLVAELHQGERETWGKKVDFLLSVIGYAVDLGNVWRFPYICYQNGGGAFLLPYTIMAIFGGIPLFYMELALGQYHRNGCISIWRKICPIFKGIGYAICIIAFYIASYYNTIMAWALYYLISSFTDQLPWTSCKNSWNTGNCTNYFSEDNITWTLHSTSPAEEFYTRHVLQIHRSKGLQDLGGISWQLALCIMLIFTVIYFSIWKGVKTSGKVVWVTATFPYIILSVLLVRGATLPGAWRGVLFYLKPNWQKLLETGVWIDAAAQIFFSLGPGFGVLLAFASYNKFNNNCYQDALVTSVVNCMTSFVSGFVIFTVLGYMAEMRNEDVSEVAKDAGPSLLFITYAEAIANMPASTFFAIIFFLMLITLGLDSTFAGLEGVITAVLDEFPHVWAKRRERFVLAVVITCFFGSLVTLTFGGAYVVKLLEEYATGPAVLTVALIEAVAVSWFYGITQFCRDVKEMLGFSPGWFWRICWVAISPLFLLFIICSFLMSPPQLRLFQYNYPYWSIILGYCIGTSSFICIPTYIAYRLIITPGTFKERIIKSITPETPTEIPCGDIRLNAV

| SMILES | IC50 ([1]; read-out: SERT IC50) | IC50 [2] | IC50 ([1]; SERT IC50 (nM)) |
| --- | --- | --- | --- |
| CC(OCC1(c2ccc(F)cc2)CCN(C)CC1)c1cc(C(F)(F)F)cc2cn(C)nc12 (single isomer, unassigned) [Example 29, 7-(1-((4-(4-Fluorophenyl)-1-methylpiperidin-4-yl)methoxy)ethyl)-2-methyl-5-(trifluoromethyl)-2H-indazole] | 0.01 to 100 nM | > 300 nM |  |
| CC(OCC1(c2ccc(F)cc2)CCNCC1)c1cc(C(F)(F)F)cc2cnn(C)c12 (single isomer, unassigned) [Example 30, 7-(1-((4-(4-Fluorophenyl)piperidin-4-yl)methoxy)ethyl)-1-methyl-5-(trifluoromethyl)-1H-indazole] | 0.01 to 100 nM | 0.01 to 100 nM |  |
| CC(OCC1(c2ccc(F)cc2)CCN(C)CC1)c1cc(C(F)(F)F)cc2cnn(C)c12 (single isomer, unassigned) [Example 31, 7-(1-((4-(4-Fluorophenyl)-1-methylpiperidin-4-yl)methoxy)ethyl)-1-methyl-5-(trifluoromethyl)-1H-indazole] | 0.01 to 100 nM | 0.01 to 100 nM |  |
| CC(OCC1(c2ccc(F)cc2)CCNCC1)c1cc(C(F)(F)F)cc2cn(C)nc12 (single isomer, unassigned) [Example 32, 7-(1-((4-(4-Fluorophenyl)piperidin-4-yl)methoxy)ethyl)-2-methyl-5-(trifluoromethyl)-2H-indazole] | 0.01 to 100 nM | 0.01 to 100 nM |  |
| CC(OCC1(c2ccc(F)cc2)CCN(C)CC1)c1cc(C(F)(F)F)cc2cn(C)nc12 (single isomer, unassigned) [Example 33, 7-(1-((4-(4-Fluorophenyl)-1-methylpiperidin-4-yl)methoxy)ethyl)-2-methyl-5-(trifluoromethyl)-2H-indazole] | 0.01 to 100 nM | 0.01 to 100 nM |  |
| CC(OCC1(c2ccc(F)cc2)CCN(C)CC1)c1cc(C2CC2)cc2c(Cl)n[nH]c12 (single isomer, unassigned) [Example 54] |  | 0.01 to 100 nM | 0.01 to 100 nM |
| CC(OCC1(c2ccc(F)cc2)CCN(C)CC1)c1cc(C(F)(F)F)cc2ccn(C)c12 (single isomer, unassigned) [Example 74, 7-(1-((4-(4-Fluorophenyl)-1-methylpiperidin-4-yl)methoxy)ethyl)-1-methyl-5-(trifluoromethyl)-1H-indole] | 100 to 300 nM | > 300 nM |  |
| CC(OCC1(c2ccc(F)cc2)CCN(C)CC1)c1cc(C(F)(F)F)cc2ccn(C)c12 (single isomer, unassigned) [Example 75, 7-(1-((4-(4-Fluorophenyl)-1-methylpiperidin-4-yl)methoxy)ethyl)-1-methyl-5-(trifluoromethyl)-1H-indole] | 0.01 to 100 nM | 0.01 to 100 nM |  |
| CC(OCC1(c2ccccc2)CCN(C)CC1)c1cc(Br)cc2c1ncn2CC1CC1 (single isomer, unassigned) [Example 130] | 0.01 to 100 nM | > 300 nM |  |
| CC(OCC1(c2ccccc2)CCN(C)CC1)c1cc(Br)cc2c1ncn2CC1CC1 (single isomer, unassigned) [Example 131] | 0.01 to 100 nM | 0.01 to 100 nM |  |
| CC(OCC1(c2ccc(F)cc2)CCN(C)CC1)c1cc(C(F)(F)F)cc2c1ncn2CC1CC1 (single isomer, unassigned) [Example 133] | 0.01 to 100 nM | > 300 nM |  |
| CC(OCC1(c2ccc(F)cc2)CCN(C)CC1)c1cc(C(F)(F)F)cc2c1ncn2CC1CC1 (single isomer, unassigned) [Example 134] | 0.01 to 100 nM | 0.01 to 100 nM |  |
| CCn1cnc2c(C(C)OCC3(c4ccc(F)cc4)CCN(C)CC3)cc(C(F)(F)F)cc21 (single isomer, unassigned) [Example 135] | 0.01 to 100 nM | > 300 nM |  |
| CCn1cnc2c(C(C)OCC3(c4ccc(F)cc4)CCN(C)CC3)cc(C(F)(F)F)cc21 (single isomer, unassigned) [Example 136] | 0.01 to 100 nM | 0.01 to 100 nM |  |
| CCn1cnc2c(C(C)OCC3(c4ccccc4)CCN(C)CC3)cc(C(F)(F)F)cc21 (single isomer, unassigned) [Example 137] | 0.01 to 100 nM | 100 to 300 nM |  |
| Cc1cc(COCC2(c3ccccc3)CCNCC2)cc2cn[nH]c12 [Example 1, 7-Methyl-5-(((4-phenylpiperidin-4-yl)methoxy)methyl)-1H-indazole] | 0.01 to 100 nM | > 300 nM |  |
| Brc1cc(COCC2(c3ccccc3)CCNCC2)c2[nH]ncc2c1 [Example 2, 5-Bromo-7-(((4-phenylpiperidin-4-yl)methoxy)methyl)-1H-indazole] | 0.01 to 100 nM | 0.01 to 100 nM |  |
| N#Cc1ccc(-c2cc(COCC3(c4ccccc4)CCNCC3)c3[nH]ncc3c2)cc1 [Example 3, 4-(7-(((4-Phenylpiperidin-4-yl)methoxy)methyl)-1H-indazol-5-yl)benzonitrile] | 0.01 to 100 nM | 0.01 to 100 nM |  |
| Cn1ncc2cc(-c3ccc(C#N)cc3)cc(COCC3(c4ccccc4)CCNCC3)c21 [Example 4, 4-(1-Methyl-7-(((4-phenylpiperidin-4-yl)methoxy)methyl)-1H-indazol-5-yl)benzonitrile] | 0.01 to 100 nM | 100 to 300 nM |  |
| Cn1cc2cc(-c3ccc(C#N)cc3)cc(COCC3(c4ccccc4)CCNCC3)c2n1 [Example 5, 4-(2-Methyl-7-(((4-phenylpiperidin-4-yl)methoxy)methyl)-2H-indazol-5-yl)benzonitrile] | 0.01 to 100 nM | > 300 nM |  |
| Cc1cc(COCC2(c3ccccc3)CCNCC2)c2[nH]ncc2c1 [Example 6, 5-Methyl-7-(((4-phenylpiperidin-4-yl)methoxy)methyl)-1H-indazole] | 0.01 to 100 nM | 0.01 to 100 nM |  |
| Cc1cc(COCC2(c3ccccc3)CCNCC2)c2c(cnn2C)c1 [Example 7, 1,5-Dimethyl-7-(((4-phenylpiperidin-4-yl)methoxy)methyl)-1H-indazole] | 0.01 to 100 nM | 0.01 to 100 nM |  |
| Cc1cc(COCC2(c3ccccc3)CCNCC2)c2nn(C)cc2c1 [Example 8, 2,5-Dimethyl-7-(((4-phenylpiperidin-4-yl)methoxy)methyl)-2H-indazole] | 0.01 to 100 nM | 0.01 to 100 nM |  |
| FC(F)(F)c1cc(COCC2(c3ccccc3)CCNCC2)c2[nH]ncc2c1 [Example 9, 7-(((4-Phenylpiperidin-4-yl)methoxy)methyl)-5-(trifluoromethyl)-1H-indazole] | 0.01 to 100 nM | 0.01 to 100 nM |  |
| CN1CCC(COCc2cc(C(F)(F)F)cc3cn[nH]c23)(c2ccccc2)CC1 [Example 10, 7-(((1-Methyl-4-phenylpiperidin-4-yl)methoxy)methyl)-5-(trifluoromethyl)-1H-indazole] | 0.01 to 100 nM | 0.01 to 100 nM |  |
| Cn1ncc2cc(C(F)(F)F)cc(COCC3(c4ccccc4)CCNCC3)c21 [Example 11, 1-Methyl-7-(((4-phenylpiperidin-4-yl)methoxy)methyl)-5-(trifluoromethyl)-1H-indazole] | 0.01 to 100 nM | 0.01 to 100 nM |  |

— patent publication US8026257B2 (Bristol-Myers Squibb Company, priority 2007, dated 2011)
